Measured values: PubChem BioAssay (NCI)
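Results reflect a 48-hour exposure of cells in 96-well plates to compound at five concentrations. TGI: total growth inhibition.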

Legend:
Assay in all cases: inhibition of tumour cell growth, NCI panel, 48 h
ACHN renal = tested on: ACHN renal
SK-OV-3 ovarian = tested on: SK-OV-3 ovarian
OVCAR-5 ovarian = tested on: OVCAR-5 ovarian
SK-MEL-2 melanoma = tested on: SK-MEL-2 melanoma
HOP-18 NSCLC = tested on: HOP-18 NSCLC
SF-268 CNS = tested on: SF-268 CNS
NCI-H522 lung = tested on: NCI-H522 lung
EKVX NSCLC = tested on: EKVX NSCLC
DLD-1 colon = tested on: DLD-1 colon
K-562 leukemia = tested on: K-562 leukemia
HCT-15 colon = tested on: HCT-15 colon
OVCAR-3 ovarian = tested on: OVCAR-3 ovarian
SR leukemia = tested on: SR leukemia
786-0 renal = tested on: 786-0 renal
HL-60(TB) leukemia = tested on: HL-60(TB) leukemia
U251 CNS = tested on: U251 CNS
CAKI-1 renal = tested on: CAKI-1 renal
MOLT-4 leukemia = tested on: MOLT-4 leukemia
MALME-3M melanoma = tested on: MALME-3M melanoma
HOP-92 NSCLC = tested on: HOP-92 NSCLC
M19-MEL melanoma = tested on: M19-MEL melanoma
NCI-H460 lung = tested on: NCI-H460 lung
M14 melanoma = tested on: M14 melanoma
HCT-116 colon = tested on: HCT-116 colon
SW-620 colon = tested on: SW-620 colon
OVCAR-8 ovarian = tested on: OVCAR-8 ovarian
OVCAR-4 ovarian = tested on: OVCAR-4 ovarian
LXFL 529 NSCLC = tested on: LXFL 529 NSCLC
SF-539 CNS = tested on: SF-539 CNS
A549 NSCLC = tested on: A549 NSCLC
RXF-631 renal = tested on: RXF-631 renal
COLO 205 colon = tested on: COLO 205 colon
NCI-H226 lung = tested on: NCI-H226 lung
SN12C renal = tested on: SN12C renal
HT29 colon = tested on: HT29 colon
A498 renal = tested on: A498 renal
DMS 273 small cell lung = tested on: DMS 273 small cell lung
SF-295 CNS = tested on: SF-295 CNS
SK-MEL-5 melanoma = tested on: SK-MEL-5 melanoma
SNB-78 CNS = tested on: SNB-78 CNS
KM20L2 colon = tested on: KM20L2 colon
SK-MEL-28 melanoma = tested on: SK-MEL-28 melanoma
IGROV1 ovarian = tested on: IGROV1 ovarian
UACC-257 melanoma = tested on: UACC-257 melanoma
NCI-H23 lung = tested on: NCI-H23 lung
RPMI-8226 leukemia = tested on: RPMI-8226 leukemia
KM12 colon = tested on: KM12 colon
DMS 114 small cell lung = tested on: DMS 114 small cell lung
UO-31 renal = tested on: UO-31 renal
SNB-75 CNS = tested on: SNB-75 CNS
SNB-19 CNS = tested on: SNB-19 CNS
HOP-62 NSCLC = tested on: HOP-62 NSCLC
UACC-62 melanoma = tested on: UACC-62 melanoma
XF 498 CNS = tested on: XF 498 CNS
RXF 393 renal = tested on: RXF 393 renal
HCC-2998 colon = tested on: HCC-2998 colon
LOX IMVI melanoma = tested on: LOX IMVI melanoma
TK-10 renal = tested on: TK-10 renal
CCRF-CEM leukemia = tested on: CCRF-CEM leukemia

Structure (SMILES): COc1ccc(-c2c(N)[n+]([O-])c3ccccc3[n+]2[O-])cc1OC
- TGI (ACHN renal): > 100 µM
- TGI (SK-OV-3 ovarian): > 100 µM
- TGI (OVCAR-5 ovarian): > 100 µM
- TGI (SK-MEL-2 melanoma): > 100 µM
- TGI (HOP-18 NSCLC): > 100 µM
- TGI (SF-268 CNS): > 100 µM
- TGI (NCI-H522 lung): > 100 µM
- TGI (EKVX NSCLC): > 100 µM
- TGI (DLD-1 colon): > 100 µM
- TGI (K-562 leukemia): > 100 µM
- TGI (HCT-15 colon): > 100 µM
- TGI (OVCAR-3 ovarian): > 100 µM
- TGI (SR leukemia): > 100 µM
- TGI (786-0 renal): > 100 µM
- TGI (HL-60(TB) leukemia): > 100 µM
- TGI (U251 CNS): > 100 µM
- TGI (CAKI-1 renal): > 100 µM
- TGI (MOLT-4 leukemia): > 100 µM
- TGI (MALME-3M melanoma): > 100 µM
- TGI (HOP-92 NSCLC): > 100 µM
- TGI (M19-MEL melanoma): > 100 µM
- TGI (NCI-H460 lung): > 100 µM
- TGI (M14 melanoma): > 100 µM
- TGI (HCT-116 colon): > 100 µM
- TGI (SW-620 colon): > 100 µM
- TGI (OVCAR-8 ovarian): > 100 µM
- TGI (OVCAR-4 ovarian): > 100 µM
- TGI (LXFL 529 NSCLC): > 100 µM
- TGI (SF-539 CNS): > 100 µM
- TGI (A549 NSCLC): > 100 µM
- TGI (RXF-631 renal): > 100 µM
- TGI (COLO 205 colon): > 100 µM
- TGI (NCI-H226 lung): > 100 µM
- TGI (SN12C renal): > 100 µM
- TGI (HT29 colon): > 100 µM
- TGI (A498 renal): > 100 µM
- TGI (DMS 273 small cell lung): > 100 µM
- TGI (SF-295 CNS): > 100 µM
- TGI (SK-MEL-5 melanoma): > 100 µM
- TGI (SNB-78 CNS): > 100 µM
- TGI (KM20L2 colon): > 100 µM
- TGI (SK-MEL-28 melanoma): > 100 µM
- TGI (IGROV1 ovarian): > 100 µM
- TGI (UACC-257 melanoma): > 100 µM
- TGI (NCI-H23 lung): > 100 µM
- TGI (RPMI-8226 leukemia): > 100 µM
- TGI (KM12 colon): > 100 µM
- TGI (DMS 114 small cell lung): > 100 µM
- TGI (UO-31 renal): > 100 µM
- TGI (SNB-75 CNS): > 100 µM
- TGI (SNB-19 CNS): > 100 µM
- TGI (HOP-62 NSCLC): > 100 µM

Structure (SMILES): O=c1c2ccccc2[nH]c2cc(O)cc(O)c12
- TGI (ACHN renal): > 100 µM
- TGI (SK-OV-3 ovarian): > 100 µM
- TGI (SK-MEL-2 melanoma): > 100 µM
- TGI (HOP-18 NSCLC): > 100 µM
- TGI (SF-268 CNS): > 100 µM
- TGI (NCI-H522 lung): 86.3 µM
- TGI (K-562 leukemia): > 100 µM
- TGI (HCT-15 colon): > 100 µM
- TGI (UACC-62 melanoma): > 100 µM
- TGI (OVCAR-3 ovarian): > 100 µM
- TGI (HL-60(TB) leukemia): > 100 µM
- TGI (U251 CNS): > 100 µM
- TGI (MOLT-4 leukemia): > 100 µM
- TGI (MALME-3M melanoma): > 100 µM
- TGI (M19-MEL melanoma): > 100 µM
- TGI (NCI-H460 lung): > 100 µM
- TGI (XF 498 CNS): > 100 µM
- TGI (M14 melanoma): > 100 µM
- TGI (RXF 393 renal): > 100 µM
- TGI (HCT-116 colon): > 100 µM
- TGI (OVCAR-8 ovarian): > 100 µM
- TGI (OVCAR-4 ovarian): > 100 µM
- TGI (HCC-2998 colon): > 100 µM
- TGI (LXFL 529 NSCLC): > 100 µM
- TGI (SF-539 CNS): > 100 µM
- TGI (LOX IMVI melanoma): > 100 µM
- TGI (A549 NSCLC): > 100 µM
- TGI (NCI-H226 lung): > 100 µM
- TGI (SN12C renal): > 100 µM
- TGI (HT29 colon): > 100 µM
- TGI (DMS 273 small cell lung): > 100 µM
- TGI (SF-295 CNS): > 100 µM
- TGI (SK-MEL-5 melanoma): 85 µM
- TGI (SNB-78 CNS): > 100 µM
- TGI (SK-MEL-28 melanoma): > 100 µM
- TGI (IGROV1 ovarian): > 100 µM
- TGI (UACC-257 melanoma): > 100 µM
- TGI (NCI-H23 lung): > 100 µM
- TGI (KM12 colon): > 100 µM
- TGI (UO-31 renal): > 100 µM
- TGI (TK-10 renal): > 100 µM
- TGI (SNB-75 CNS): > 100 µM
- TGI (CCRF-CEM leukemia): > 100 µM
- TGI (SNB-19 CNS): > 100 µM
